Data: US4659707A, “Aminoacyl derivatives of 4,9-dihydro-10H-pyrido[3,2-b]thieno[3,2-e][1,4]diazepinone and of 4,9-dihydro-10H-pyrido[3,2-b]thieno[3,4-e][1,4]diazepinone, their preparation and pharmaceutical compositions containing them” (Dompe' Farmaceutici S.p.A., priority 1985, dated 1987)

Experiments:
[1] = system: Gastric acid secretion; experiment: Gastric acid secretion in the pylorus ligated rat; type: in vivo, male Sprague-Dawley rats; conditions: oral immediately after pylorus ligation, ligation 4 hours, read-out: Antisecretory activity ED50 (confidence limits p = 0.95)
Protocol: 1. Gastric acid secretion in the pylorus ligated rat The method of […]., Gruenstein M., Siplet H., Gastroenterology, 5, 43 (1945) was used, slightly modified according to the following: Male Sprague-Dawley rats weighing 150±5 g fasting since 48 hours were used. Pylorus ligation was performed for 4 hours. The products under exam were administered by the oral route immediately after the ligation.

[2] = system: Stress ulcer; experiment: Stress ulcer (restraint+immersion) in the rat; type: in vivo; conditions: po, 6 hours immersion at about 20° C., ulcer score 0 to 5, read-out: Antiulcer activity (stress ulcer) ED50 (confidence limits p = 0.95)
Protocol: 2. Stress ulcer (restraint+immersion) in the rat The method described by Takagi, K., Okabes, S., Jap. J. Pharmacol., 18, 9 (1968) has been used. The animals fasted for 48 hours were immobilized in a stress cage (drilled cylindrical tube 14.5×3.5 cm) and immersed in H2 O (at a temperature of about 20° C.) up to the xiphoid process. After 6 hours immersion the animals were sacrificed in excess ether, the stomach was drawn and opened along the great curvature. The ulcers were evaluated according to a score ranging from 0 to 5 assigning: 0.5 for each small ulcera (<3 mm) or in the presence of erosions or haemorrages 1 for each great ulcer (>3 mm). The oral treatment with the reference drug pirenzepine at the doses of 12.5--25--50 mg/kg has been carried out 1 hour before the stress.

[3] = system: Carbachole salivation; experiment: Charbacole salivation in the rat; type: in vivo, male Sprague-Dawley rats; conditions: 1 h, oral one hour before 1 mg/kg i.p. charbacole, read-out: Carbachole salivation ED50 (confidence limits p = 0.95)
Protocol: 3. Charbacole salivation in the rat The method cited by R. Turner: "Parasympatholytic Agents" in R. Turner "Screening Methods in Pharmacology" pag. 137. Academic Press. New York & London 1965, with slight changes, was used. Male Sprague-Dawley rats, average weight 150±5 g, fasted for 24 hours, were used. The salivation was induced by the intraperitoneal administration of 1 mg/kg of charbacole. The products under exam were administered orally one hour before the chollinergic stimulus.

[4] = system: Tremors by oxotremorine; experiment: Oxotremorine tremors in the mouse; type: in vivo; conditions: oral 60 minutes before 2 mg/kg i.p. oxotremorine, read-out: Tremors by oxotremorine ED50 (confidence limits p)
[5] = Acute toxicity; conditions: mouse, in vivo; Swiss mice, oral, observation 14 days
Protocol: The acute toxicity was determined by administering by oral route the substances under exam to Swiss mice; average weight 20±2 g. The observation period was 14 days. 10 Animals were used for each tested dose.

**Q.** For Cc1scc2c1N(C(=O)CN1CCN(C)CC1)c1ncccc1NC2=O [Example 14, 4-[(4-Methylpiperazin-1-yl)acetyl]-3-methyl-4,9-dihydro-10H-pyrido[3,2-b]thieno[3,4-e][1,4]-diazepin-10-one], which ED50 [1] is on record?
**A.** 3.12 mg/kg

**Q.** And the ED50 [2]?
**A.** 4.43 mg/kg

**Q.** What about the ED50 [3] of the same molecule?
**A.** 3.36 mg/kg

**Q.** What about the ED50 [4] of the same molecule?
**A.** > 10000 mg/kg

**Q.** And the LD50 at 336 h [5]?
**A.** > 500 mg/kg

**Q.** Which ED50 [1] does the source give for CN1CCN(CC(=O)N2c3ccsc3C(=O)Nc3cccnc32)CC1.Cl [Example 3, 4-[(4-Methylpiperazin-1-yl)acetyl]-4,9-dihydro-10H-pyrido[3,2-b]thieno[3,2-e][1,4]-diazepin-10-one hydrochloride] here?
**A.** 27.6 mg/kg

**Q.** What about the ED50 [2] of the same molecule?
**A.** 55.9 mg/kg

**Q.** What about the ED50 [3] of the same molecule?
**A.** > 200 mg/kg

**Q.** And the ED50 [4]?
**A.** > 1000 mg/kg

**Q.** What about the LD50 at 336 h [5] of the same molecule?
**A.** > 2000 mg/kg

**Q.** For CN1CCN(CC(=O)N2c3cscc3C(=O)Nc3cccnc32)CC1 [Example 13, 4-[(4-Methylpiperazin-1-yl)acetyl]-4,9-dihydro-10H-pyrido[3,2-b]thieno[3,4-e][1,4]-diazepin-10-one], which ED50 [1] is on record?
**A.** 12.4 mg/kg

**Q.** What about the ED50 [2] of the same molecule?
**A.** 28.8 mg/kg

**Q.** What about the ED50 [3] of the same molecule?
**A.** > 200 mg/kg

**Q.** What about the ED50 [4] of the same molecule?
**A.** > 1000 mg/kg

**Q.** What about the LD50 at 336 h [5] of the same molecule?
**A.** > 1000 mg/kg
